Assays:
Format in all cases: cell-based
[1] = target: T1, KCNQ2 channels and KCNQ3 channels (Homo sapiens, UniProt O43525+O43526); assay: hyperpolarisation assay format, voltage-sensitive fluorescent dye, CHO cells expressing KCNQ channels; settings: retigabine 30 μM, ΔF/F, control cells subtracted, FIG. 2
T1 construct: expressed in transfected cells; host or cells: CHO cells (Chinese hamster ovary cells)
Protocol: FIG. 2: Effect of retigabine on the membrane potential of cells expressing KCNQ channels in a hyperpolarisation assay format. The time response of the fluorescence intensity in CHO cells expressing KCNQ channels before and after the application (arrow) of a known KCNQ channel opener (retigabine, 30 μM) is depicted.
The cells were seeded into assay plates and loaded with the dye in exactly the same way as described in Example 1. The measurements were carried out by a Fluostar or Polarstar fluorescence reader of the company BMG or the FlexStation of the company Molecular Devices. It was excited at a wavelength of 525 nm and detected at a wavelength of 560 nm. After incubation with the dye, the base line was monitored for 5 min. Then either 50 up ES buffer (control) or 50 μl of the KCNQ agonist retigabine (30 μM) were added and the fluorescence was monitored in an appropriate reader for 7.5 min.
In FIG. 2 the time response of the fluorescence intensity of CHO cells expressing KCNQ channels before and after the application (arrow) of the known KCNQ channel opener (retigabine, 30 μM) is depicted. The percental change in the fluorescence intensity (ΔF/F) based on the averaged fluorescence intensity before the application of retigabine is depicted. The course of the fluorescence of the control cells (application of buffer) was subtracted from the retigabine-induced fluorescence signal.

[2] = target: T1, KCNQ2 channels and KCNQ3 channels; assay: ion jump assay format for searching for potassium channel blockers (potassium injection to extracellular medium); settings: KCl final concentration 91.8 mM, FIG. 3
Protocol: FIG. 3: Influence of XE991 on the fluorescence response after potassium injection to the extracellular medium in a ion jump assay format for searching for potassium channel blockers. The time response of the fluorescence intensity of CHO cells expressing the KCNQ channels before and after the application (arrow) of […] potassium chloride is depicted.
The seeding of KCNQ-expressing cells in assay plates, the loading with the dye and the measurement devices to be used as well as the wavelengths to be set are in accordance with Example 1. […] Then the base line was monitored in the fluorescence reader for 3-4 min and the fluorescence values were measured for 10 min after the injection of 15 μl of a KCl solution (final concentration 91.8 mM) in each cavity of the plate.
In FIG. 3 the time response of the fluorescence intensity of CHO cells expressing the KCNQ channels before and after the application (arrow) of 91.8 mM potassium chloride is depicted. The fluorescence responses of the cells in the absence (Δ) and presence (▪) of the known KCNQ channel blocker XE991 (60 μM) are shown. The percental change in the fluorescence intensity (ΔF/F) based on the averaged fluorescence intensity before the potassium application is depicted.

[3] = target: T1, KCNQ2 channels and KCNQ3 channels; assay: depolarisation assay format, voltage-sensitive fluorescent dye, CHO cells expressing KCNQ channels; settings: saturating concentration of XE991 (60 μM), ΔF/F, control cells subtracted, FIG. 1
Protocol: FIG. 1: Effect of XE991 on the membrane potential of cells expressing KCNQ channels in a depolarisation assay format. The time response of the fluorescence intensity of CHO cells expressing KCNQ channels before and after the application (arrow) of a known KCNQ channel blocker (XE991, 60 μM) is depicted.
CHO cells (Chinese hamster ovary cells) expressing KCNQ2 channels and KCNQ3 channels were adherently cultivated in a nutrient medium [Minimum Essential Medium (MEM), α medium 22571 1×liquid (Invitrogen), 10% Fetal Calf Serum (FCS) (Gibco, heat inactivated), including selection antibiotics] at 37° C., 5% CO2 and 95% air humidity in cell culture bottles. […] After incubation with the dye, either 50 μl ES (control) or 50 μl of the KCNQ channel blocker XE991 in independent wells in a saturating concentration (final concentration 60 μM) were added and incubated for […] with concurrent monitoring of the fluorescence in the reader. The measurements were carried out by a Fluostar or Polarstar fluorescence reader of the company BMG or the FlexStation of the company Molecular Devices. It was excited at a wavelength of 525 nm and detected at a wavelength of 560 nm.
In FIG. 1 the time response of the fluorescence intensity of CHO cells expressing KCNQ channels before and after the application (arrow) of a known KCNQ channel blocker (XE991) is depicted. […]

T1 sequence (O43525 whole entry): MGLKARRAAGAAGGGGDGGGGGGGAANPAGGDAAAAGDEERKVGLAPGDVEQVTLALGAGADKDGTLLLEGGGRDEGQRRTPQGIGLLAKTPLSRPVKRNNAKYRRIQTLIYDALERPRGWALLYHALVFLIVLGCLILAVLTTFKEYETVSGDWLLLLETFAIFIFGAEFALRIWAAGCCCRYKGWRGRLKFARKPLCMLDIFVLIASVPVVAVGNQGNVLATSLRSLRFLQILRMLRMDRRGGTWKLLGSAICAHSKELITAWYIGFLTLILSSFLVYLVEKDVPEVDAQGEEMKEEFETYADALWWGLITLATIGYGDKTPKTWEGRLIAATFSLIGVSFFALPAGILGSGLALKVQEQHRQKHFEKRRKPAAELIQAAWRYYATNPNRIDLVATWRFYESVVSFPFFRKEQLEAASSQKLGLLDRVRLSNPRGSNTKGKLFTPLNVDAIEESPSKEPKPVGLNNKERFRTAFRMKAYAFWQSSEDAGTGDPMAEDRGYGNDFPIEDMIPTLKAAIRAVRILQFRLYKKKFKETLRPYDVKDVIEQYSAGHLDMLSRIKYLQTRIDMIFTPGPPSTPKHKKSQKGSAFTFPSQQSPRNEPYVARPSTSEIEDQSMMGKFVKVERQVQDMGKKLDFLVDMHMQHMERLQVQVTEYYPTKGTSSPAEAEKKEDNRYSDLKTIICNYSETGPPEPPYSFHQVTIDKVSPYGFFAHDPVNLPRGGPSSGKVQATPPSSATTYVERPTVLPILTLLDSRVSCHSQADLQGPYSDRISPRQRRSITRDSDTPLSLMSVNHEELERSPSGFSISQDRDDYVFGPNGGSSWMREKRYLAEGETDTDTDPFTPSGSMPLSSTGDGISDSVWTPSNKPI
T1 sequence (O43526 whole entry): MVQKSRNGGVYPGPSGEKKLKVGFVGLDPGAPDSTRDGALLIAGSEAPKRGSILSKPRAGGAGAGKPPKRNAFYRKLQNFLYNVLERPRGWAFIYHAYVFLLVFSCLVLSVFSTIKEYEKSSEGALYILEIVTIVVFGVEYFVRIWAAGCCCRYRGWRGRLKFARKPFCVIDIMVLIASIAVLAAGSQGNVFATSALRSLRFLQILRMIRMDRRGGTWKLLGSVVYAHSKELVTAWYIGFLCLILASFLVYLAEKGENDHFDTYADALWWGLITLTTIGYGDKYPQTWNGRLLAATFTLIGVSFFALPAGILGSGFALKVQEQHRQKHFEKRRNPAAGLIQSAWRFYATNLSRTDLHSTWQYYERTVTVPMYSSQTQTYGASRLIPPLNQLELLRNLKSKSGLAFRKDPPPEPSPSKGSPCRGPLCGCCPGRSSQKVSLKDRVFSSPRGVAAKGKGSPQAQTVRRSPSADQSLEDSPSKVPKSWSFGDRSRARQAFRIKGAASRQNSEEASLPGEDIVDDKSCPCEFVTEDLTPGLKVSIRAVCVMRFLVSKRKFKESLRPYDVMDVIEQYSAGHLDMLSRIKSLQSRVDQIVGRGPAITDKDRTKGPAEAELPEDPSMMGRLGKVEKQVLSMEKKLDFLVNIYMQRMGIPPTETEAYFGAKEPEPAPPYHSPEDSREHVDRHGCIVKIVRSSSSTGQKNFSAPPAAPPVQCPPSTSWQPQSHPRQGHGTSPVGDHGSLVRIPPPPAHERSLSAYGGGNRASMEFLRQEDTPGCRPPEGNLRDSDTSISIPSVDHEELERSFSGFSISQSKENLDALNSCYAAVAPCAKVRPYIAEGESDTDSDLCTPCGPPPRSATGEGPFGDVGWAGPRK

Row | Compound | decrease in the fluorescence intensity after application of retigabine [1] | difference of the amplitudes of the fluorescence responses in the presence and in the absence of a KCNQ channel blocker (dynamic range of the assay) ([2]; XE991 60 μM vs control cells) | fluorescence response after the potassium application in the presence of the blocker ([2]; saturating concentration of XE991 (60 μM), 30 min, control cells show increase by about 80%) | increase in the fluorescence intensity after application of the KCNQ channel blocker [3]
1 | CCOC(=O)Nc1ccc(NCc2ccc(F)cc2)cc1N [retigabine] | 35-40% | – | – | –
2 | O=C1c2ccccc2C(Cc2ccncc2)(Cc2ccncc2)c2ccccc21 [XE991] | – | about 80% | no increase in the fluorescence | about 55%

Reference: patent US20080227819A1, “Method for identifying the agonistic activity of a target compound on a potassium channel” (Gruenenthal GmbH, priority 2007, published 2008)
